Measurements published in PMC12254266, “Multicolored sequential resonance energy transfer for detection of simultaneous ligand binding at G protein-coupled receptors” (Nature Communications, 2025).
Values joined by “and” are separate entries in the source; they are usually repeats but may differ in a detail not shown here. Equal entries are not always repeated.

Target: FFA1 (Homo sapiens, UniProt O14842)
Experiment: Ca2+ mobilisation (Fura2) in Flp-In T-REx 293 cells expressing Nluc-FFA1, FFA1-Nluc or untagged FFA1
Format: cell-based
Parameters: expressed in transfected cells
Settings: for Ca2+ Response as a % of T360 Response: single technical replicates; for pEC50: Ca2+ data, mean±SEM; for pEC50 / EMax: NR = No response; for EMax: percentage of response to 10 μM T360
Protocol: Nluc-FFA1, FFA1-Nluc or untagged FFA1 Flp-In T-REx 293 cells were plated at 50,000 cells per well in poly-D-lysine coated black clear bottom 96-well plates. Cells were then cultured for 24 h until reaching confluency before culture medium was replaced with medium containing 100 ng/mL of doxycycline to induce receptor expression. Cells were cultured for a further 24 h before the assay. On the day of the assay culture medium was removed and replaced with medium containing 3 μM Fura2-AM Ca^2+ dye. […] Fura2 fluorescent emission at 520 nm following excitation with each of 340 and 380 nm was measured in regular intervals both before and after adding test compounds for a total of 90 s per well. Calcium responses were determined by taking the peak 340/380 ratio after first subtracting the ratios obtained prior to addition of test compound.

Chain of FFA1 (O14842 whole entry): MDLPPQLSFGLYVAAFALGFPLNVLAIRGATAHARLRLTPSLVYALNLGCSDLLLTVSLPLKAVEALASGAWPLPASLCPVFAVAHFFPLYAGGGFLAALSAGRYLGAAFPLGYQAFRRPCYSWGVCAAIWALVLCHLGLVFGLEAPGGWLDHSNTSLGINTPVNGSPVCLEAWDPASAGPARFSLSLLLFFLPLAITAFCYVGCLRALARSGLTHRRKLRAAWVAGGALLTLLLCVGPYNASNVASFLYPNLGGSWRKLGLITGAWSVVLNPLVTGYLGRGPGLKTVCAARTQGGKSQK

SMILES	activity in Ca2+ assays (in words)	pEC50	EMax [%]	Ca2+ Response as a % of T360 Response (log[Ligand] -5)	Ca2+ Response as a % of T360 Response (log[Ligand] -5.5)	Ca2+ Response as a % of T360 Response (log[Ligand] -6)	Ca2+ Response as a % of T360 Response (log[Ligand] -6.5)	Ca2+ Response as a % of T360 Response (log[Ligand] -7)	Ca2+ Response as a % of T360 Response (log[Ligand] -8)	Ca2+ Response as a % of T360 Response (log[Ligand] -9)
COc1ccc(C(=O)N(CC(C)(C)C)c2cccc(C)n2)c(N2CCC(COc3cccc(C(CC(=O)NCCCNc4ccc([N+](=O)[O-])c5nonc45)C4CC4)c3)CC2)c1.O=C(O)C(F)(F)F (stereo not drawn) [TUG-2598]	loss of activity			7.1012% and 15.2717% and 1.6246% and 2.7551% and 3.0159% and 6.2735% and 0.8241% and 1.6284% and -0.5359%	1.5741% and 1.0900% and 0.3918% and 0.5253% and 0.2798% and 0.0720% and 0.3603% and 1.4514% and 1.2937%	0.7619% and 0.7231% and 2.0549% and 2.7546% and 3.4553% and 0.9789% and -0.3872% and -0.5141% and 0.0396%	0.0902% and 2.5170% and 0.7188% and 6.6987% and 2.2005% and 0.1478% and -0.6706% and 0.0668% and 0.2619%	0.1653% and 1.3781% and 1.4889% and 2.9024% and 3.7196% and 2.7339% and -0.5451% and -0.2430% and 0.9384%	0.4880% and 2.3639% and 0.4031% and 3.7453% and 1.7322% and 2.3495% and 0.5137% and 0.8889% and 1.3866%	4.5581% and 0.9272% and 0.1871% and 0.2081% and 3.1188% and 3.6549% and 0.3770% and -0.1948% and -0.1822%
COc1ccc(C(=O)N2CCC(CNC(=O)OC(C)(C)C)CC2)c(N2CCC(COc3cccc(C(CC(=O)O)C4CC4)c3)CC2)c1.O=C(O)C(F)(F)F (stereo not drawn) [TUG-2450]		6.18±0.09	108±7							
COc1ccc(C(=O)N(CC(C)(C)CNc2ccc([N+](=O)[O-])c3nonc23)c2ccccc2)c(N2CCC(COc3cccc(C(CC(=O)O)C4CC4)c3)CC2)c1.O=C(O)C(F)(F)F (stereo not drawn) [TUG-2490]		5.95±0.16			93.1455% and 77.9850% and 75.8107% and 96.4232% and 72.2793% and 68.6021%	53.6775% and 46.6859% and 50.0991% and 72.4727% and 32.6717% and 50.6607%	16.7030% and 15.2768% and 30.6910% and 52.9860% and 26.5604% and 17.0828%	-0.5150% and -0.6020% and 9.0880% and 4.0961% and 1.0500% and 13.2109%	-0.3253% and 0.1971% and 2.2527% and 3.6975% and -0.7574% and 0.7574%	3.6767% and 1.4233% and -0.8955% and -4.2309% and 0.8739% and -0.0879%

Continued, in another order:

activity in Ca2+ assays (in words)	pEC50	EMax [%]	SMILES	Ca2+ Response as a % of T360 Response (log[Ligand] -5)	Ca2+ Response as a % of T360 Response (log[Ligand] -5.5)	Ca2+ Response as a % of T360 Response (log[Ligand] -6)	Ca2+ Response as a % of T360 Response (log[Ligand] -6.5)	Ca2+ Response as a % of T360 Response (log[Ligand] -7)	Ca2+ Response as a % of T360 Response (log[Ligand] -8)	Ca2+ Response as a % of T360 Response (log[Ligand] -9)
	5.29±0.04		COc1ccc(C(=O)NCC(C)(C)CNc2ccc([N+](=O)[O-])c3nonc23)c(N2CCC(COc3cccc(C(CC(=O)O)C4CC4)c3)CC2)c1.O=C(O)C(F)(F)F (stereo not drawn) [TUG-2489]	102.5277% and 96.3666% and 102.3411% and 80.8186% and 76.8959%	75.8584% and 55.2490% and 64.4948% and 77.9746% and 61.7732% and 62.6510%	11.4043% and 15.1652% and 19.0434% and 4.1691% and 0.1177% and 9.7037%	0.7033% and -0.7918% and -3.1732% and -6.5594% and 0.0827% and 3.4744%	-3.1258% and 4.2395% and 1.6831% and -3.2821% and -0.2376% and 1.2224%	-0.4995% and 5.1700% and -1.2657% and 6.6097% and 0.3774% and -0.3774%	0.4589% and 3.5934% and -2.5884% and -5.3677% and 0.8677% and 2.5453%
	6.78±0.02	124±9	COc1ccc(C(=O)N(CC(C)(C)CNC(=O)OC(C)(C)C)c2ccccc2)c(N2CCC(COc3cccc(C(CC(=O)O)C4CC4)c3)CC2)c1.O=C(O)C(F)(F)F (stereo not drawn) [TUG-2467]							
